Results reported in US10167262B2, “Herbicidal substituted 3-arylpyrazoles” (FMC CORPORATION, priority 2014, dated 2019).

What was measured:
Assay in all cases: Test E pre-/postemergence greenhouse test, plant response rating 0-100
Type in all cases: in vivo
[1] = tested on: fall panicum (Panicum dichotomiflorum); details: Panicum dichotomiflorum, post-emergence, Postemergence, scale 0 to 100
Description: (§1) Seeds of plant species selected from corn (Zea mays), soybean (Glycine max), velvetleaf (Abutilon theophrasti), lambsquarters (Chenopodium album), wild poinsettia (Euphorbia heterophylla), palmer pigweed (Amaranthus palmeri), waterhemp (common waterhemp, Amaranthus rudis), surinam grass (Brachiaria decumbens), large (Lg) crabgrass (Digitaria sanguinalis), Brazilian crabgrass (Digitaria horizontalis), fall panicum (Panicum dichotomiflorum), giant foxtail (Setaria faberii), green foxtail (Setaria viridis), goosegrass (Eleusine indica), johnsongrass (Sorghum halepense), ragweed (common ragweed, Ambrosia elatior), barnyardgrass (Echinochloa crus-galli), sandbur (southern sandbur, Cenchrus echinatus), arrowleaf sida (Sida rhombifolia), Italian ryegrass (Lolium multiflorum), dayflower (Virginia (VA) dayflower, Commelina virginica), field bindweed (Convolvulus arvensis), morningglory (Ipomoea coccinea), nightshade (eastern black nightshade, Solanum ptycanthum), kochia (Kochia scoparia), yellow nutsedge (Cyperus esculentus), smartweed (ladysthumb smartweed, Polygonum persicaria), cocklebur (common cocklebur, Xanthium strumarium), and hairy beggarticks (Bidens pilosa), were planted into a silt loam soil and treated preemergence with test chemicals formulated in a non-phytotoxic solvent mixture which included a surfactant.
(§2) At the same time, plants from these crop and weed species and also waterhemp_RES1, (ALS & Triazine resistant common waterhemp, Amaranthus rudis), and waterhemp_RES2, (ALS & HPPD resistant common waterhemp, Amaranthus rudis) were planted in pots containing Redi-Earth® planting medium (Scotts Company, 14111 Scottslawn Road, Marysville, Ohio 43041) comprising spaghnum peat moss, vermiculite, wetting agent and starter nutrients were treated with postemergence applications of test chemicals formulated in the same manner. Plants ranged in height from 2 to 18 cm for postemergence treatments (1- to 4-leaf stage).
(§3) Treated plants and controls were maintained in a greenhouse for 14 to 21 days, after which time all species were compared to controls and visually evaluated. Plant response ratings, summarized in Table E, are based on a scale of 0 to 100 where 0 is no effect and 100 is complete control. A dash (-) response means no test result.

[2] = tested on: Italian ryegrass (Lolium multiflorum); details: Lolium multiflorum, post-emergence, Postemergence, scale 0 to 100
Description: as §1, §2, §3

[3] = tested on: sandbur (southern sandbur, Cenchrus echinatus); details: Cenchrus echinatus, post-emergence, Postemergence, scale 0 to 100
Description: as §1, §2, §3

[4] = tested on: dayflower (Virginia (VA) dayflower, Commelina virginica); details: Commelina virginica, post-emergence, Postemergence, scale 0 to 100
Description: as §1, §2, §3

soybean (Glycine max) = details: Glycine max, post-emergence, Postemergence, scale 0 to 100
Description: as §1, §2, §3

[5] = tested on: wild poinsettia (Euphorbia heterophylla); details: Euphorbia heterophylla, post-emergence, read-out: Plant response rating, Poinsettia, Wild
Description: as §1, §2, §3

[6] = tested on: Brazilian crabgrass (Digitaria horizontalis); details: Digitaria horizontalis, post-emergence, Postemergence, scale 0 to 100, read-out: Plant response rating, Crabgrass, Brazil
Description: as §1, §2, §3

corn (Zea mays) = details: Zea mays, post-emergence, Postemergence, scale 0 to 100
Description: as §1, §2, §3

[7] = tested on: waterhemp (common waterhemp, Amaranthus rudis); details: Amaranthus tuberculatus, post-emergence, Postemergence, scale 0 to 100
Description: as §1, §2, §3

[8] = tested on: barnyardgrass (Echinochloa crus-galli); details: Echinochloa crus-galli, post-emergence, Postemergence, scale 0 to 100
Description: as §1, §2, §3

[9] = tested on: field bindweed (Convolvulus arvensis); details: Convolvulus arvensis, post-emergence, Postemergence, scale 0 to 100
Description: as §1, §2, §3

SMILES: CCCn1cc(C(=O)c2ccccc2)c(-c2cc(Cl)cc(Cl)c2)n1 [Compound 61, [3-(3,5-dichlorophenyl)-1-propyl-1H-pyrazol-4-yl]phenylmethanone]
- pest or weed control at 31 g/ha ([1]; 31 g ai/ha): 0%
- pest or weed control at 62 g/ha ([1]; 62 g ai/ha): 0%
- pest or weed control at 125 g/ha ([1]; 125 g ai/ha): 0%
- pest or weed control at 250 g/ha ([1]; 250 g ai/ha): 0%
- pest or weed control at 500 g/ha ([1]; 500 g ai/ha): 0%
- pest or weed control at 31 g/ha ([2]; 31 g ai/ha): 0%
- pest or weed control at 62 g/ha ([2]; 62 g ai/ha): 0%
- pest or weed control at 125 g/ha ([2]; 125 g ai/ha): 0%
- pest or weed control at 250 g/ha ([2]; 250 g ai/ha): 0%
- pest or weed control at 500 g/ha ([2]; 500 g ai/ha): 0%
- pest or weed control at 31 g/ha ([3]; 31 g ai/ha): 0%
- pest or weed control at 62 g/ha ([3]; 62 g ai/ha): 0%
- pest or weed control at 125 g/ha ([3]; 125 g ai/ha): 0%
- pest or weed control at 250 g/ha ([3]; 250 g ai/ha): 0%
- pest or weed control at 500 g/ha ([3]; 500 g ai/ha): 0%
- pest or weed control at 31 g/ha ([4]; 31 g ai/ha): 0%
- pest or weed control at 62 g/ha ([4]; 62 g ai/ha): 0%
- pest or weed control at 125 g/ha ([4]; 125 g ai/ha): 0%
- pest or weed control at 250 g/ha ([4]; 250 g ai/ha): 0%
- pest or weed control at 500 g/ha ([4]; 500 g ai/ha): 0%
- plant injury at 31 g/ha (soybean (Glycine max); 31 g ai/ha): 0%
- plant injury at 62 g/ha (soybean (Glycine max); 62 g ai/ha): 0%
- plant injury at 125 g/ha (soybean (Glycine max); 125 g ai/ha): 0%
- plant injury at 250 g/ha (soybean (Glycine max); 250 g ai/ha): 0%
- plant injury at 500 g/ha (soybean (Glycine max); 500 g ai/ha): 10%
- pest or weed control at 31 g/ha [5]: 0%
- pest or weed control at 62 g/ha [5]: 0%
- pest or weed control at 125 g/ha [5]: 0%
- pest or weed control at 250 g/ha [5]: 10%
- pest or weed control at 500 g/ha [5]: 30%
- pest or weed control at 31 g/ha ([6]; 31 g ai/ha): 0%
- pest or weed control at 62 g/ha ([6]; 62 g ai/ha): 0%
- pest or weed control at 125 g/ha ([6]; 125 g ai/ha): 0%
- pest or weed control at 250 g/ha ([6]; 250 g ai/ha): 0%
- pest or weed control at 500 g/ha ([6]; 500 g ai/ha): 0%
- Corn plant response rating (crop injury, 0 = no effect, 100 = complete kill) at 31 g/ha (corn (Zea mays); 31 g ai/ha): 0%
- Corn plant response rating (crop injury, 0 = no effect, 100 = complete kill) at 62 g/ha (corn (Zea mays); 62 g ai/ha): 0%
- Corn plant response rating (crop injury, 0 = no effect, 100 = complete kill) at 125 g/ha (corn (Zea mays); 125 g ai/ha): 0%
- Corn plant response rating (crop injury, 0 = no effect, 100 = complete kill) at 250 g/ha (corn (Zea mays); 250 g ai/ha): 0%
- Corn plant response rating (crop injury, 0 = no effect, 100 = complete kill) at 500 g/ha (corn (Zea mays); 500 g ai/ha): 0%
- pest or weed control at 31 g/ha ([7]; 31 g ai/ha): 20%
- pest or weed control at 62 g/ha ([7]; 62 g ai/ha): 30%
- pest or weed control at 125 g/ha ([7]; 125 g ai/ha): 75%
- pest or weed control at 250 g/ha ([7]; 250 g ai/ha): 100%
- pest or weed control at 31 g/ha ([8]; 31 g ai/ha): 0%
- pest or weed control at 62 g/ha ([8]; 62 g ai/ha): 0%
- pest or weed control at 125 g/ha ([8]; 125 g ai/ha): 0%
- pest or weed control at 250 g/ha ([8]; 250 g ai/ha): 10%
- pest or weed control at 500 g/ha ([8]; 500 g ai/ha): 20%
- pest or weed control at 31 g/ha ([9]; 31 g ai/ha): 0%
- pest or weed control at 62 g/ha ([9]; 62 g ai/ha): 0%
- pest or weed control at 125 g/ha ([9]; 125 g ai/ha): 0%
- pest or weed control at 250 g/ha ([9]; 250 g ai/ha): 0%
- pest or weed control at 500 g/ha ([9]; 500 g ai/ha): 5%
